Source: patent publication US20210069249A1, “METHODS AND COMPOSITIONS OF CYTOTOXIC T CELL DEPLETION” (CRISPR THERAPEUTICS AG, priority 2018, published 2021)

What was measured:
exon 6 of the IL2RG gene = experiment: On-target cleavage efficiency (INDEL, TIDES protocol) of IL2RG gRNAs; assay type: cell-based; details: primary human CD3+ T cells; one day post-editing; 3 independent experiments
[1] = tested on: off-target sites in primary human CD3+ cells; experiment: GUIDE-seq off-target analysis of IL2RG gRNAs; assay type: cell-based; details: for On-Target Read Count / on-target/off-target profile (GUIDE-seq) / GUIDE-seq Off-Targets / Present in Multiple Replicates: CD3+ T cells; for on-target/off-target profile (GUIDE-seq): multiple independent cell sample replicates; for GUIDE-seq Off-Targets: number of sites; for Present in Multiple Replicates: off-target sites found in at least 2 cell sample replicates;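 for all read-outs here: Cas9 RNP plus double-stranded oligonucleotide nucleofected into CD3+ T cells, capture sites found by sequencing, sites also seen in RNP-free control cells discarded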
[2] = tested on: TCR and CD3 expression in CD8+ and CD3+ T cells; experiment: TCR and CD3 expression by flow cytometry after TRAC editing; assay type: cell-based, human; details: day seven post-editing
[3] = tested on: primary human CD8+ or CD3+ T cells; experiment: Cell viability and total cell counts after Cas9/gRNA RNP editing; details: day two post-editing
TRAC gene = experiment: On-target cleavage efficiency (INDEL, TIDES protocol) of TRAC gRNAs; details: day two post-editing, 2 independent experiments

For “GC1: sgRNA targeting IL2RG exon 6, spacer 5′-ACCAGTGCCTGGCATGTAGT-3′ (spacer only, sgRNA scaffold lacks entry, further chemistry not given here)”, the “Average INDEL Frequency (%)” value (exon 6 of the IL2RG gene) was 46.43%.
In the case of “GC2: sgRNA targeting IL2RG exon 6, spacer 5′-CCAGTGCCTGGCATGTAGTA-3′ (spacer only, sgRNA scaffold lacks entry, further chemistry not given here)”, the “Average INDEL Frequency (%)” value (exon 6 of the IL2RG gene) is reported as 74.67%.
For “GC3: sgRNA targeting IL2RG exon 6, spacer 5′-CAGTGCCTGGCATGTAGTAG-3′ (spacer only, sgRNA scaffold lacks entry, further chemistry not given here)”, the “Average INDEL Frequency (%)” value (exon 6 of the IL2RG gene) was 77.53%.
With “GC4: sgRNA targeting IL2RG exon 6, spacer 5′-GTAGGGGCACAACAAATATA-3′ (spacer only, sgRNA scaffold lacks entry, further chemistry not given here)” the “Average INDEL Frequency (%)” value (exon 6 of the IL2RG gene) was 41.07%.
For “GC5: sgRNA targeting IL2RG exon 6, spacer 5′-GAATCCTTTCCTGTTTGCAT-3′ (spacer only, sgRNA scaffold lacks entry, further chemistry not given here)”, the “Average INDEL Frequency (%)” value (exon 6 of the IL2RG gene) was 13.03%.
“GC6: sgRNA targeting IL2RG exon 6, spacer 5′-CCTGTTTGCATTGGAAGCCG-3′ (spacer only, sgRNA scaffold lacks entry, further chemistry not given here)” was tested, and the “Average INDEL Frequency (%)” value (exon 6 of the IL2RG gene) was 14.80%.
For “GC7: sgRNA targeting IL2RG exon 6, spacer 5′-GAAGCCGTGGTTATCTCTGT-3′ (spacer only, sgRNA scaffold lacks entry, further chemistry not given here)”, the “Average INDEL Frequency (%)” value (exon 6 of the IL2RG gene) was 31.07%.
For “GC8: sgRNA targeting IL2RG exon 6, spacer 5′-GGTTATCTCTGTTGGCTCCA-3′ (spacer only, sgRNA scaffold lacks entry, further chemistry not given here)”, the “Average INDEL Frequency (%)” value (exon 6 of the IL2RG gene) was 66.40%, the “On-Target Read Count” value [1] was 4348 and the “on-target/off-target profile (GUIDE-seq)” value [1] was “generally favorable”. The “GUIDE-seq Off-Targets” value [1] was 930, the “Present in Multiple Replicates” value [1] was 3 and the Off-Target/On-Target ([1]; site chr1 125180094, Intergenic) was 1.54%. It also gave an Off-Target/On-Target ([1]; site chr16 46390807, Intergenic) of 0.14% and an Off-Target/On-Target ([1]; site chr16 46399022, Intergenic) of 0.46%.
In the case of “GC9: sgRNA targeting IL2RG exon 6, spacer 5′-GTTATCTCTGTTGGCTCCAT-3′ (spacer only, sgRNA scaffold lacks entry, further chemistry not given here)”, the “Average INDEL Frequency (%)” value (exon 6 of the IL2RG gene) is reported as 31.37%.
For “GC10: sgRNA targeting IL2RG exon 6, spacer 5′-AAGGCTGATAATCAATCCCA-3′ (spacer only, sgRNA scaffold lacks entry, further chemistry not given here)”, the “Average INDEL Frequency (%)” value (exon 6 of the IL2RG gene) was 71.77%, the “On-Target Read Count” value [1] was 5384 and the “on-target/off-target profile (GUIDE-seq)” value [1] was “generally favorable”. For the same substance, the “GUIDE-seq Off-Targets” value [1] was 1227, the “Present in Multiple Replicates” value [1] was 14 and the Off-Target/On-Target ([1]; site chr3 108840645, Intronic, TRAT1) was 3.05%. For the same substance, the Off-Target/On-Target ([1]; site chr5 159185831, Intronic, RNF145) was 0.20%, the Off-Target/On-Target ([1]; site chr12 62289934, Intronic, USP15) was 0.48% and the Off-Target/On-Target ([1]; site chr21 17142630, Intergenic) was 0.71%. For the same substance, the Off-Target/On-Target ([1]; site chrUn_KI270438v1 104161) was 1.60%, the Off-Target/On-Target ([1]; site chrUn_KI270438v1 104938) was 0.28% and the Off-Target/On-Target ([1]; site chrUn_KI270438v1 109447) was 0.39%. For the same substance, the Off-Target/On-Target ([1]; site chrUn_KI270467v1 2297) was 0.17%, the Off-Target/On-Target ([1]; site chrUn_KI270467v1 2459) was 0.17% and the Off-Target/On-Target ([1]; site chrUn_KI270467v1 2622) was 0.48%. For the same substance, the Off-Target/On-Target ([1]; site chrUn_KI270467v1 2830) was 0.13% and the Off-Target/On-Target ([1]; site chrUn_KI270467v1 3365) was 0.26%.
For “GC11: sgRNA targeting IL2RG exon 6, spacer 5′-GGAGCCAACAGAGATAACCA-3′ (spacer only, sgRNA scaffold lacks entry, further chemistry not given here)”, the “Average INDEL Frequency (%)” value (exon 6 of the IL2RG gene) was 15.60%.
For “GC12: sgRNA targeting IL2RG exon 6, spacer 5′-CCACGGCTTCCAATGCAAAC-3′ (spacer only, sgRNA scaffold lacks entry, further chemistry not given here)”, the “Average INDEL Frequency (%)” value (exon 6 of the IL2RG gene) was 58.43%, the “On-Target Read Count” value [1] was 2352 and the “on-target/off-target profile (GUIDE-seq)” value [1] was “generally favorable”. The “GUIDE-seq Off-Targets” value [1] was 1368, the “Present in Multiple Replicates” value [1] was 4 and the Off-Target/On-Target ([1]; site chr13 18212170, Intronic, FAM230C) was 1.02%. For the same substance, the Off-Target/On-Target ([1]; site chrUn_KI270467v1 2459) was 0.77%, the Off-Target/On-Target ([1]; site chrUn_KI270467v1 2660) was 0.34% and the Off-Target/On-Target ([1]; site chrUn_KI270590v1 2621) was 0.38%.
For “GC13: sgRNA targeting IL2RG exon 6, spacer 5′-GCTTCCAATGCAAACAGGAA-3′ (spacer only, sgRNA scaffold lacks entry, further chemistry not given here)”, the “Average INDEL Frequency (%)” value (exon 6 of the IL2RG gene) was 35.60%.
In the case of “GC14: sgRNA targeting IL2RG exon 6, spacer 5′-TAGAAAAAAGAAAAGCAAAG-3′ (spacer only, sgRNA scaffold lacks entry, further chemistry not given here)”, the “Average INDEL Frequency (%)” value (exon 6 of the IL2RG gene) is reported as 28.23%.
With “GC15: sgRNA targeting IL2RG exon 6, spacer 5′-TTGTGCCCCTACTACATGCC-3′ (spacer only, sgRNA scaffold lacks entry, further chemistry not given here)” the “Average INDEL Frequency (%)” value (exon 6 of the IL2RG gene) was 46.77%.
In the case of “TRAC 2: sgRNA targeting TRAC, spacer 5′-AGAGCAACAGTGCTGTGGCC-3′ (spacer only, sgRNA scaffold lacks entry, chemistry not fully specified)”, the “CD3+ cells (%)” value ([2]; CD3+ T cells) is reported as 43.17%, the “TCR+ cells (%)” value ([2]; CD3+ T cells) is reported as 8.63% and the “CD3+ cells (%)” value ([2]; CD8+ T cells) is reported as 24.34%. The “TCR+ cells (%)” value ([2]; CD8+ T cells) was 8.1%, the Cell count ([3]; CD3+ T cells) was 7.77E+05 and the Cell count ([3]; CD8+ T cells) was 7.84E+05. The “INDEL Frequency (%)” value (TRAC gene; CD3+ T cells) was 53.85% and the “INDEL Frequency (%)” value (TRAC gene; CD8+ T cells) was 59.5%.
“TRAC 2: sgRNA targeting TRAC, spacer 5′-AGAGCAACAGTGCTGTGGCC-3′ (spacer only; sgRNA scaffold lacks entry; TRAC gRNA spacer, TRAC 2)” was tested, and the “Cell Viability (%)” value ([3]; CD3+ T cells) was 80% and the “Cell Viability (%)” value ([3]; CD8+ T cells) was 88.5%.
